This note sets out measurements from patent US5155115A, “Thienopyridine derivatives” (Kyowa Hakko Kogyo Co., Ltd., priority 1991, dated 1992).

Each structure is given as a SMILES string.

One series deals with dd-Y-strain male mice. In words: Acute Toxicity (minimum lethal dose). In kind it is in vivo. To be noted: mortality for 7 days. On the procedure:
A test compound was intraperitoneally and orally administered to dd-Y-strain male mice weighing 20 to 25 g. The minimum lethal dose (MLD) was determined by observing the mortality for 7 days after the administration.

Another series relates to 5-HT3 receptor. In words: 5-HT3 receptor binding test ([^3 H] quipazine, NG108-15 cell membrane fraction). To be noted: 2 nM [^3 H] quipazine, 37° C., 60 minutes, pH 7.5; for Inhibition Rate (%) (concentration) 10^-7 M: 10^-7 M test compound; for Inhibition Rate (%) (concentration) 10^-8 M: 10^-8 M test compound. Details: species or system rat. On the procedure:
5-HT3 receptor binding test
Using rat neutroblastoma-glicoma NG108-15 cell membrane fraction, the binding activities of the test compounds to 5-HT3 receptor were examined.
A membrane fraction of NG108-15 cells was prepared according to the method of Neijt et al. [Naunyn-Schmiedeberg's Arch. Pharmacol., 337, 493 (1988)].
The receptor binding test was performed using [^3 H] quipazine [J. Neurochem., 52, 1787 (1989)], a high affinity ligand to 5-HT3 receptor.
A membrane fraction obtained from 4×10^5 NG108-15 cells was suspended in 1 ml of 20 mM Tris-hydrochloride buffer (pH 7.5) (hereinafterreferred to as Buffer) containing 154 mM sodium chloride. Then, 2 nM [^3 H] quipazine (2519.7 GBq/mmol; NEN CO.) and various concentrations of the test compound were added to the suspension followed by incubating at 37° C. for 60 minutes. 4 ml of ice-cold Buffer was added to terminate the reaction and then the mixture was filtered through GF/C glass fiber filter (Whatmann Co., Ltd.). The filter was washed 5 times with 2 ml of ice-cold Buffer, and put in a scintillation vial containing 8 ml of Scintisol EX-H (Wako Pure Chemicals, Inc.). Radioactivity on the filter was counted in a liquid scintillation counter (TRI-CARB 2200CA; Packard Co., Ltd.).
An inhibition of the [^3 H] quipazine binding by the test compound was estimated according to the equation; [formula]
"Total binding" is [^3 H] quipazine-binding in the absence of test compound and "non-specific binding" is [^3 H] quipazine-binding in the presence of 10 μM MDL7222 5-HT3 antagonist [Naunyn-Schmiedeberg's Arch. Pharmacol., 326, 36 (1984)].

In series [1] the test system is Cisplatin-induced Vomiting. In words: Activity Against Cisplatin-induced Vomiting. To be noted: 1.0 mg/kg i.p., 30 minutes before cisplatin 40 mg/kg i.p., n = 10. The series is classed as in vivo, Suncus murinus. The procedure: Activity Against Cisplatin-induced Vomiting
In one group, 5 to 10 female and male Suncus murinus animals weighing 23 to 68 g were used. According to the method of Matsuki et al. [Japan J. Pharmacol., 48, 303 (1988)], each animal was put into a separate metal net cage (width 15 cm ×length 21 cm ×height 15 cm). One hour after, a test compound or physiological saline (control) was intraperitoneally (i.p.) administered in a dose of 10 μl/g of body weight. Further 30 minutes after administration of the test compound or physiological saline (control), 40 mg/kg of cisplatin was intraperitoneally administered. Taking no account of vomiting caused for 5 minytes after administration of cisplatin, a time period (latency) for the first vomiting and the number of frequencies (episodes) of vomiting caused for the period of 5 to 120 minutes after administration were determined. The latency and the number of frequencies in the test compound administered group were compared with those in the control group. The test of significance was performed by Student's t-test.

Take `CN1[C@@H]2CCC[C@H]1C[C@@H](NC(=O)c1c(O)c3ccsc3[nH]c1=O)C2` [Compound 9, Endo-N-(9-methyl-9-azabicyclo[3.3.1]non-3-yl)-6,7-dihydro-4-hydroxy-6-oxothieno[2,3-b]pyridine-5-carboxamide]: in the series on dd-Y-strain male mice, the “MLD (mg/kg) i.p.” value is given as above 50 mg/kg and the “MLD (mg/kg) p.o.” value is above 300 mg/kg. For the same compound, in the series with 5-HT3 receptor, the “Inhibition Rate (%) (concentration) 10^-7 M” value worked out at 69% and the “Inhibition Rate (%) (concentration) 10^-8 M” value turned out to be 12%.

Regarding `CN1[C@@H]2CC[C@H]1C[C@@H](NC(=O)c1c(O)c3ccsc3[nH]c1=O)C2` [Compound 7, Endo-N-(8-methyl-8-azabicyclo[3.2.1]oct-3-yl)-6,7-dihydro-4-hydroxy-6-oxothieno[2,3-b]pyridine-5-carboxamide], in the series with 5-HT3 receptor, the “Inhibition Rate (%) (concentration) 10^-7 M” value is on record as 71% and the “Inhibition Rate (%) (concentration) 10^-8 M” value turned out to be 23%.

In the case of `CCCCn1c(=O)c(C(=O)N[C@H]2C[C@H]3CC[C@@H](C2)N3C)c(O)c2sccc21` [Compound 3, Endo-N-(8-methyl-8-azabicyclo[3.2.1]oct-3-yl)-4-(n-butyl)-4,5-dihydro-7-hydroxy-5-oxothieno[3,2-b]pyridine-6-carboxamide], the “MLD (mg/kg) p.o.” value in the series on dd-Y-strain male mice is reported as above 200 mg/kg. Further, in the series on 5-HT3 receptor, the “Inhibition Rate (%) (concentration) 10^-7 M” value is 101% and the “Inhibition Rate (%) (concentration) 10^-8 M” value is listed as 98%.

For `CCCCn1c(=O)c(C(=O)O[C@H]2C[C@H]3CC[C@@H](C2)N3C)c(O)c2sccc21` [Compound 4, Endo-8-methyl-8-azabicyclo[3.2.1]oct-3-yl 4-(n-butyl)-4,5-dihydro-7-hydroxy-5-oxothieno[3,2-b]pyridine-6-carboxylate], in the series with dd-Y-strain male mice, the “MLD (mg/kg) i.p.” value was above 50 mg/kg and the “MLD (mg/kg) p.o.” value is given as above 100 mg/kg.

In the case of `CN1[C@@H]2CC[C@H]1C[C@@H](NC(=O)c1c(O)c3sccc3[nH]c1=O)C2` [Compound 1, Endo-N-(8-methyl-8-azabicyclo[3.2.1]oct-3-yl)-4,5-dihydro-7-hydroxy-5-oxothieno[3,2-b]pyridine-6-carboxamide], in the series on dd-Y-strain male mice, the “MLD (mg/kg) i.p.” value is given as above 100 mg/kg and the “MLD (mg/kg) p.o.” value was above 300 mg/kg. Moreover, the “Number of Vomiting episodes (mean ± S.E.M.)” value in series [1] (5 to 120 minutes after cisplatin, control 29.2 ± 4.5 (n = 5)) amounted to 9.3 ± 2.2. Moreover, in series [1] (time to first vomiting, control 28.6 ± 6.3 (n = 5)), the “Latency (min.) (mean ± S.E.M.)” value came out at 66.0 ± 10.4 min. For the same compound, in the series on 5-HT3 receptor, the “Inhibition Rate (%) (concentration) 10^-7 M” value was determined as 94% and the “Inhibition Rate (%) (concentration) 10^-8 M” value worked out at 44%.

In the case of `CCCCn1c(=O)c(C(=O)O[C@H]2C[C@H]3CC[C@@H](C2)N3C)c(O)c2ccsc21` [Compound 6, Endo-8-methyl-8-azabicyclo[3.2.1]oct-3-yl 7-(n-butyl)-6,7-dihydro-4-hydroxy-6-oxothieno[2,3-b]pyridine-5-carboxylate], in the series on dd-Y-strain male mice, the “MLD (mg/kg) i.p.” value was above 100 mg/kg and the “MLD (mg/kg) p.o.” value is on record as above 100 mg/kg.

On to `CN1[C@@H]2CC[C@H]1C[C@@H](OC(=O)c1c(O)c3ccsc3[nH]c1=O)C2` [Compound 8, Endo-8-methyl-8-azabicyclo[3.2.1]oct-3-yl 6,7-dihydro-4-hydroxy-6-oxothieno[2,3-b]pyridine-5-carboxylate], for which, in the series with dd-Y-strain male mice, the “MLD (mg/kg) i.p.” value is listed as above 100 mg/kg and the “MLD (mg/kg) p.o.” value was above 300 mg/kg.

On to `CCCCn1c(=O)c(C(=O)N[C@H]2C[C@H]3CC[C@@H](C2)N3C)c(O)c2ccsc21` [Compound 5, Endo-N-(8-methyl-8-azabicyclo[3.2.1]oct-3-yl)-7-(n-butyl)-6,7-dihydro-4-hydroxy-6-oxothieno[2,3-b]pyridine-5-carboxamide], for which, in the series on dd-Y-strain male mice, the “MLD (mg/kg) i.p.” value is reported as above 100 mg/kg and the “MLD (mg/kg) p.o.” value was above 300 mg/kg. In the series with 5-HT3 receptor, the “Inhibition Rate (%) (concentration) 10^-7 M” value is listed as 105% and the “Inhibition Rate (%) (concentration) 10^-8 M” value was found to be 100%.
